Results published in PubChem BioAssay AID686930 (Broad Institute, 2013).
Values joined by “and” are separate entries in the source; they are usually repeats but may differ in a detail not shown here. Identical values can stand only once. Active and inactive are the calls of the source. No rule for the calls is given here.

System: not listed separately
Assay: Confirmatory dose response, V. cholerae WN1103 δluxq inducers of light production, absence of autoinducers (AID 686930)
Settings: V. cholerae WN1103 ΔluxQ, lux luminescence, 6 h; at 35 µM (top of the series)

Row | Compound | light induction (activation)
1 | O=C(CC1CCCCC1)Nc1nnc(-c2ccc3c(c2)CCCC3)o1 | 0.068% (inactive)

Same assay, conditions: V. cholerae WN1103 ΔluxQ, lux luminescence, 6 h; at 80 µM (top of the series)

Row | Compound | light induction (activation)
2 | O=C(Nc1nnc(-c2ccc(Cl)cc2)o1)C1CCCCC1 | 0.835% (inactive)
3 | COC(=O)c1ccccc1Nc1cccc(Cl)c1 | 0.819% (inactive)
4 | O=c1ncn(-c2cccc(Cl)c2)c2cccc(Cl)c12 | 0.081% (inactive)
5 | Cn1cnc(=O)c2ccccc21 | 0.063% (inactive)
6 | O=C(CSc1nc2ccccc2c(=O)[nH]1)NC1CCCCC1 | 0.011% (inactive)
7 | O=C(Nc1nnc(-c2cccc(Cl)c2)o1)C1CCCCC1 | 0.053% (inactive)
8 | CCC(C)(C)C(=O)Nc1nnc(-c2ccc3c(c2)OCCO3)o1 | -0.001% (inactive)
9 | CCc1nc(=O)c2ccccc2n1-c1cccc(Cl)c1 | 0.68% (inactive)
10 | Cc1ccc2cc3c(NC(=O)c4ccoc4)nn(C)c3nc2c1 | 6.06% (inactive)
11 | O=c1nc(Cc2ccccc2)n(-c2cccc(Cl)c2)c2ccccc12 | 17.7% (inactive)
12 | O=c1ncn(-c2cccc(Cl)c2)c2cc(Cl)ccc12 | 0.848% (inactive)
13 | Cc1ccc2c(=O)ncn(-c3cccc(Cl)c3)c2c1 | 0.092% (inactive)
14 | COc1ccc(-n2cnc(=O)c3ccccc32)cc1Cl | 1.24% (inactive)
15 | O=C(O)c1ccccc1Nc1cccc(Cl)c1 | 0.041% (inactive)
16 | O=C(CSc1nc2c(c(=O)[nH]1)CCCC2)NC1CCCCC1 | 1.52% (inactive)
17 | O=c1ncn(-c2ccccc2Cl)c2ccccc12 | 5% (inactive)

Row | Compound | light induction (activation)
18 | O=C1C(=O)N(Cc2cccc(Cl)c2)c2ccccc21 | 0.237% (inactive)
19 | O=c1[nH]cnc2ccccc12 | 0.044% (inactive)
20 | O=C(CC1CCCCC1)Nc1nnc(-c2cccnc2)o1 | -0.002% (inactive)
21 | NC(=O)c1ccccc1Nc1ccccc1 | 1.21% (inactive)
22 | O=C(Nc1nnc(-c2ccc3c(c2)OCCO3)o1)C1CCCC1 | 0.121% (inactive)
23 | O=c1ncn(Cc2ccc(Cl)cc2)c2ccccc12 | 3.21% (inactive)
24 | O=c1ncn(-c2ccc(Cl)cc2)c2ccccc12 | 0.086% (inactive)
25 | COc1ccc2c(=O)ncn(-c3cccc(Cl)c3)c2c1 | 0.054% (inactive)
26 | NC(=O)c1ccccc1Nc1cccc(Cl)c1 | 0.32% (inactive)
27 | O=C(Nc1nnc(-c2ccc3c(c2)CCCC3)o1)C1CCC1 | 0.009% (inactive)
28 | Cc1ccc(-n2cnc(=O)c3ccccc32)cc1Cl | 0.708% (inactive)
29 | O=c1ncn(-c2ccc(Cl)c(Cl)c2)c2ccccc12 | 0.121% (inactive)
30 | CCOC(=O)c1ccccc1Nc1cccc(Cl)c1 | 0.033% (inactive)
31 | O=c1nc(-c2ccccc2)n(-c2cccc(Cl)c2)c2ccccc12 | -0.003% (inactive)
32 | COc1cccc(-n2cnc(=O)c3ccccc32)c1 | 12% (inactive)
33 | O=C1C(=O)N(Cc2ccccc2Cl)c2ccccc21 | 0.599% (inactive)

Same assay, conditions: V. cholerae WN1103 ΔluxQ, lux luminescence, 6 h; at 100 µM (top of the series)

Row | Compound | light induction (activation)
34 | O=S(=O)(Nc1nnc(-c2ccc3c(c2)OCCO3)o1)c1ccc(Cl)cc1 | -0.019% (inactive)
35 | O=C(Nc1nnc(-c2ccc3c(c2)OCCO3)o1)C1CC1 | 0.003% (inactive)
36 | O=C(Nc1nnc(-c2cccnc2)o1)C1CCC1 | -0.007% (inactive)
37 | CCn1nnnc1N | 0.029% (inactive)
38 | O=C(Nc1nnc(C2CCCC2)o1)C1CCCCC1 | 0.003% (inactive)
39 | CC(C)c1ccc2cc3c(NC(=O)c4ccco4)nn(C)c3nc2c1 | 0.362% (inactive)
40 | O=C(Cc1ccc(-c2ccccc2)cc1)NC1COC1 | 32.6% (inactive)
41 | COc1ccc(-c2nnc(NC(C)=O)o2)cc1 | 0.052% (inactive)
42 | O=C(Nc1nnc(-c2ccc3c(c2)OCCO3)o1)C(F)(F)c1ccccc1 | -0.027% (inactive)
43 | Cc1ccc2cc3c(NC(=O)c4cc5ccccc5o4)nn(C)c3nc2c1 | -0.001% (inactive)
44 | O=C(Cc1ccc(-c2ccccc2)cc1)NC1CNC1 | 0.006% (inactive)
45 | CC(C)(C)OC(=O)N1CCC(C(=O)Nc2nnc(-c3ccc4c(c3)OCCO4)o2)CC1 | 0.028% (inactive)
46 | COc1ccc(S(=O)(=O)Nc2nnc(-c3ccc4c(c3)OCCO4)o2)cc1 | -0.015% (inactive)
47 | O=C(Nc1nnc(-c2cccnc2)o1)C1CCCCC1 | 7.84% (inactive)
48 | Cc1ccc2cc3c(NC(=O)Cc4ccco4)nn(C)c3nc2c1 | 0.668% (inactive)
49 | O=C(Nc1nnc(-c2ccccc2Cl)o1)C1CCCCC1 | 0.001% (inactive)
50 | CN(C)/C=N/c1nnc(-c2ccc3c(c2)OCCO3)o1 | 0.028% (inactive)
51 | Cn1nc(NC(=O)c2ccco2)c2cc3ccc(C(C)(C)C)cc3nc21 | -0.007% (inactive)
52 | COc1cccc(-c2nnc(NC(=O)C3CCCCC3)o2)c1 | 0.041% (inactive)
53 | CN1CCC(C(=O)Nc2nnc(-c3ccc4c(c3)OCCO4)o2)CC1 | 0.046% (inactive)
54 | O=C(Nc1nnc(-c2ccncc2)o1)C1CCC1 | 0.061% (inactive)
55 | Cc1ccc2cc3c(NC(=O)c4ccccn4)nn(C)c3nc2c1 | -0.007% (inactive)
56 | Cn1nc(NC(=O)c2ccco2)c2ccccc21 | 3.2% (inactive)
57 | CCn1nnnc1/N=C/c1ccc(N2CCCCC2)cc1 | 1.21% (inactive)
58 | Cc1ccc2cc3c(NC(=O)c4ccc(C)o4)nn(C)c3nc2c1 | 8.61% (inactive)
59 | C(=N\c1nnc(-c2ccc3c(c2)OCCO3)o1)/c1ccccc1 | 0.005% (inactive)
60 | c1ccc(CNc2nnc(-c3ccc4c(c3)OCCO4)o2)cc1 | 0.006% (inactive)
61 | O=C(Nc1nnc(-c2ccc3c(c2)OCCO3)o1)C1CCC1 | 0.014% (inactive)
62 | Cn1ccc(NC(=O)c2ccco2)n1 | 0.057% (inactive)

System: V. cholerae WN1103 ΔluxQ, lux luminescence, 6 h
Assay: as above
Settings: not given

Row | Compound | AC40
63 | O=C(Nc1nnc(-c2ccc3c(c2)OCCO3)o1)C1CCCCC1 | 5.8 µM and 1.96 µM
64 | CCn1nnnc1NC(C)c1ccc(N2CCCC2)cc1 (configuration not stated) | 34.7 µM
65 | Cc1ccc2cc3c(NC(=O)c4cccs4)nn(C)c3nc2c1 | > 80 µM (inactive)
66 | O=C(Cc1ccc(-c2ccccc2)cc1)N[C@@H]1CCOC1 (racemic) | 31.2 µM
67 | Cc1ccc2cc3c(NC(=O)C4CCCC4)nn(C)c3nc2c1 | 59.3 µM
68 | O=c1ncn(-c2ccc(F)c(Cl)c2)c2ccccc12 | 5.38 µM
69 | O=C(Nc1nnc(-c2ccc3c(c2)OCCO3)o1)C1CCCCCC1 | 9.05 µM
70 | CCCCCCCCCC(=O)C(O)CC (configuration not stated) | 0.848 µM
71 | Cc1cc(F)c2cc3c(NC(=O)c4ccco4)nn(C)c3nc2c1 | 47 µM
72 | O=C(Cc1ccc(-c2ccccc2)cc1)NC1CCC1 | 5.06 µM
73 | O=c1ncn(-c2ccccc2)c2ccccc12 | 0.361 µM
74 | CC(C)(C)COC(=O)CSc1n[nH]c(=O)[nH]c1=O | 18.9 µM
75 | Cc1cc2cc3c(NC(=O)c4ccco4)nn(C)c3nc2cc1C | 71.7 µM
76 | COc1ccc(-c2nnc(NC(=O)C3CCCCC3)o2)cc1 | > 100 µM (inactive)
77 | O=c1ncn(-c2cc(Cl)cc(Cl)c2)c2ccccc12 | 1.09 µM
78 | Cc1cc(F)cc2nc3c(cc12)c(NC(=O)c1ccco1)nn3C | 27.1 µM
79 | O=c1ncn(-c2cccc(Cl)c2)c2ccccc12 | 0.0667 µM and 0.362 µM
80 | Cc1nc(=O)c2ccccc2n1-c1cccc(Cl)c1 | 18.1 µM
81 | COc1ccc2cc3c(NC(=O)c4ccco4)nn(C)c3nc2c1 | 0.901 µM
82 | CCCCCCCCCC(=O)[C@H](O)CC (racemic) | 1.92 µM
83 | CCc1ccc2cc3c(NC(=O)c4ccco4)nn(C)c3nc2c1 | 42.1 µM
84 | O=c1ncn(-c2cccc(Cl)c2)c2ccc(Cl)cc12 | 1.33 µM
85 | O=c1ncn(-c2cccc(F)c2)c2ccccc12 | 0.302 µM
86 | Cn1nc(NC(=O)c2ccco2)c2cccnc21 | 44.1 µM
87 | COc1ccccc1-c1nnc(NC(=O)C2CCCCC2)o1 | > 100 µM (inactive)
88 | CCn1nnnc1NCc1ccc(C(C)C)cc1 | 0.255 µM
89 | Cc1cc2nc3c(cc2cc1F)c(NC(=O)c1ccco1)nn3C | 57.3 µM
90 | Cc1ccc2c(c1)c(=O)ncn2-c1cccc(Cl)c1 | 1.45 µM
91 | Cn1nc(NC(=O)c2ccco2)c2cc3ccccc3nc21 | 4.12 µM
92 | Cc1cccc(-n2cnc(=O)c3ccccc32)c1 | 0.199 µM
